Where a name gives a salt, the structure may show the parent alone. Bounds are passed on as bounds.

The target of the assay is T1, human TRPC6 (Homo sapiens, UniProt Q9Y210).
T1 construct: expressed in transfected cells
T1 sequence (Q9Y210 1-931): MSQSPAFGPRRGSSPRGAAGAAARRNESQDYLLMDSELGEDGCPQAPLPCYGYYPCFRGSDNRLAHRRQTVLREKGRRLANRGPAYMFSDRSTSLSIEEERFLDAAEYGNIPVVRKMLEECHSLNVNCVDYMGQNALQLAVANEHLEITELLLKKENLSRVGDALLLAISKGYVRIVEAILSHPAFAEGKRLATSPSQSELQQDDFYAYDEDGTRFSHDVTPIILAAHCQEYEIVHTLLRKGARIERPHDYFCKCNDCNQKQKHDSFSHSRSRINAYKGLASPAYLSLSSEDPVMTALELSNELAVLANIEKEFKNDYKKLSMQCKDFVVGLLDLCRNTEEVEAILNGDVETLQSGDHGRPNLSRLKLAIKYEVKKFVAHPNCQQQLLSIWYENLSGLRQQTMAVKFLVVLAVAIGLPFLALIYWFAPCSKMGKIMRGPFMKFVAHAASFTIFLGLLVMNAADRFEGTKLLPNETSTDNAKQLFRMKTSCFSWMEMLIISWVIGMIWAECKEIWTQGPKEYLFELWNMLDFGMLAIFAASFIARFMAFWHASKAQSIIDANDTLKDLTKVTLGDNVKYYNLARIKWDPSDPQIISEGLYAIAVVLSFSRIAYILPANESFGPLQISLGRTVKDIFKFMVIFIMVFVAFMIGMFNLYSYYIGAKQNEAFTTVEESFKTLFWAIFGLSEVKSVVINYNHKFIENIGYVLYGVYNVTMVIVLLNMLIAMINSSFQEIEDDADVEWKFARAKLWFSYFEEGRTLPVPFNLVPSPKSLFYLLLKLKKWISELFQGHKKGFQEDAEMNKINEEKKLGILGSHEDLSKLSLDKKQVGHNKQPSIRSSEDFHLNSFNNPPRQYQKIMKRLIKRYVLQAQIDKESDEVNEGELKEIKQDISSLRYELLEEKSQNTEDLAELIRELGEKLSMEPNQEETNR
The assay is described as follows: TRPC6 calcium flux assay (FLIPR, OAG-stimulated calcium influx). The settings on record: HEK293 cells stably transfected with human TRPC6, read-out: hTRPC6 Potency. It counts as cell-based. In short, it runs like this: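 IC50 derived by plotting background-corrected peak fluorescence (180 s window, normalized to OAG-triggered signal vs buffer) against dose. Stable human TRPC6 HEK293 line was dye-loaded, exposed to compound 25 min, then challenged with 50 uM final OAG in 2 mM Ca2+ HEPES buffer pH 7.2, 0.5% DMSO.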
Regarding `N[C@@H]1CN(c2nc3ccccc3n2Cc2ccc(Cl)cn2)CC[C@H]1F` [Example 211, (3R,4R)-1-(1-((5-chloropyridin-2-yl)methyl)-1H-benzo[d]imidazol-2-yl)-4-fluoropiperidin-3-amine hydrochloride], the IC50 stood at 1.09 nM. As to `COc1ccc(Cn2c(N3CCC[C@@H](N)C3)nc3ccccc32)cc1Cl` [Example 393, (R)-1-(1-(3-chloro-4-methoxybenzyl)-1H-benzo[d]imidazol-2-yl)piperidin-3-amine], the IC50 worked out at 5050 nM. For `COC[C@@H]1COCCN1C(=O)Cn1c(N2CC[C@@H](F)[C@H](N)C2)nc2ccc(F)cc21` [Example 680, 2-(2-((3R,4R)-3-amino-4-fluoropiperidin-1-yl)-6-fluoro-1H-benzo[d]imidazol-1-yl)-1-((R)-3-(methoxymethyl)morpholino) ethan-1-one], the IC50 is 153 nM. As for `N#Cc1ccc(Cn2c(N3CC[C@@H](F)[C@H](N)C3)nc3cc(F)cc(F)c32)nc1` [Example 64, 6-((2-((3R,4R)-3-amino-4-fluoropiperidin-1-yl)-5,7-difluoro-1H-benzo[d]imidazol-1-yl)methyl)nicotinonitrile], the IC50 turned out to be 132 nM. Consider `CC(C)(C#N)c1ccc(Cn2c(N3CCC[C@@H](N)C3)nc3ccccc32)cc1` [Example 380, (R)-2-(4-((2-(3-aminopiperidin-1-yl)-1H-benzo[d]imidazol-1-yl)methyl)phenyl)-2-methylpropanenitrile], for which the IC50 came out at 17000 nM. As to `N#Cc1cnc(Cn2c(N3CC[C@@H](F)[C@H](N)C3)nc3c(F)cc(F)cc32)cn1` [Example 251, 5-((2-((3R,4R)-3-amino-4-fluoro-1-piperidinyl)-4,6-difluoro-1H-benzimidazol-1-yl)methyl)-2-pyrazinecarbonitrile], the IC50 was found to be 17.2 nM. `CC1(O)CCN(C(=O)Cn2c(N3CC[C@@H](F)[C@H](N)C3)nc3cc(F)c(F)cc32)C1` (stereo partly drawn) [Example 648, 2-(2-((3R,4R)-3-amino-4-fluoropiperidin-1-yl)-5,6-difluoro-1H-benzo[d]imidazol-1-yl)-1-(3-hydroxy-3-methylpyrrolidin-1-yl)ethanone]: the IC50 turned out to be 3350 nM.

Turning to `N#Cc1ccc(Cn2c(N3CC[C@@H]4OCCN[C@H]4C3)nc3ccccc32)nc1` [Example 132, 6-((2-((4aS,8aS)-hexahydro-2H-pyrido[4,3-b][1,4]oxazin-6(5H)-yl)-1H-benzimidazol-1-yl)methyl)-3-pyridinecarbonitrile], the IC50 came to 42 nM. With `N[C@@H]1CN(c2nc3cc(F)c(F)cc3n2CC(=O)N2CCCC(C(F)(F)F)C2)CC[C@H]1F` (mixture of isomers) [Example 504, 2-(2-((3R,4R)-3-amino-4-fluoropiperidin-1-yl)-5,6-difluoro-1H-benzo[d]imidazol-1-yl)-1-(3-(trifluoromethyl)piperidin-1-yl)ethan-1-one], the IC50 was 39.3 nM. `N#Cc1ccc(Cn2c(N3CC[C@@H](F)[C@H](N)C3)nc3ccc(C#N)cc32)cc1` [Example 158, 2-((3R,4R)-3-amino-4-fluoro-1-piperidinyl)-1-(4-cyanobenzyl)-1H-benzimidazole-6-carbonitrile]: the IC50 amounted to 4.71 nM. Turning to `N#Cc1ccc(Cn2c(N3CCC[C@]4(CCCN4)C3)nc3ccccc32)nc1` [Example 135, 6-((2-((5R)-1,7-diazaspiro[4.5]decan-7-yl)-1H-benzimidazol-1-yl)methyl)-3-pyridinecarbonitrile], the IC50 is more than 3750 nM. On to `CN(CC(F)(F)F)C(=O)Cn1c(N2CC[C@@H](O)[C@H](N)C2)nc2ccc(F)cc21` [Example 481, 2-(2-((3R,4R)-3-amino-4-hydroxypiperidin-1-yl)-6-fluoro-1H-benzo[d]imidazol-1-yl)-N-methyl-N-(2,2,2-trifluoroethyl)acetamide], for which the IC50 came out at 2400 nM.

Consider `N#Cc1ccc(Cn2c(N3CC[C@@H](F)[C@H](N)C3)nc3cc(Cl)c(OC(F)(F)F)cc32)nc1` [Example 125, 6-((2-((3R,4R)-3-amino-4-fluoro-1-piperidinyl)-5-chloro-6-(trifluoromethoxy)-1H-benzimidazol-1-yl)methyl)-3-pyridinecarbonitrile], for which the IC50 was 0.389 nM.

Take `CCNC(=O)Cn1c(N2CC[C@@H](F)[C@H](N)C2)nc2cc(F)c(F)cc21` [Example 282, 2-(2-((3R,4R)-3-amino-4-fluoro-1-piperidinyl)-5,6-difluoro-1H-benzimidazol-1-yl)-N-ethylacetamide]: the IC50 turned out to be 150 nM. Consider `N[C@@H]1CN(c2nc3cc(F)c(F)cc3n2CC(=O)N2CCN(C(=O)C3CC3)CC2)CC[C@H]1F` [Example 531, 2-(2-((3R,4R)-3-amino-4-fluoropiperidin-1-yl)-5,6-difluoro-1H-benzo[d]imidazol-1-yl)-1-(4-(cyclopropanecarbonyl)piperazin-1-yl)ethan-1-one], for which the IC50 is more than 3750 nM. Consider `N[C@@H]1CN(c2nc3cc(F)c(F)cc3n2CC(=O)N2Cc3cccnc3C2)CC[C@H]1F` [Example 632, 2-(2-((3R,4R)-3-amino-4-fluoropiperidin-1-yl)-5,6-difluoro-1H-benzo[d]imidazol-1-yl)-1-(5H-pyrrolo[3,4-b]pyridin-6(7H)-yl)ethanone], for which the IC50 was 230 nM. As to `CN[C@@H]1CN(c2nc3cc(F)cc(F)c3n2[C@H](C)c2ccc(C#N)cn2)CC[C@H]1F` (single isomer, unassigned) [Example 440], the IC50 is 1340 nM. On to `C[C@@H](c1ccc(C#N)cn1)n1c(N2CC[C@@H](F)[C@H](N)C2)nc2ccc(C#N)cc21` [Example 225, 2-((3R,4R)-3-amino-4-fluoropiperidin-1-yl)-1-((S)-1-(5-cyanopyridin-2-yl)ethyl)-1H-benzo[d]imidazole-6-carbonitrile hydrochloride], for which the IC50 is 2.81 nM. As to `C[C@@H](c1ccc(C#N)cc1)n1c(N2CC[C@@H](F)[C@H](N)C2)nc2ccccc21` [Example 320, 4-((S)-1-(2-((3R,4R)-3-amino-4-fluoropiperidin-1-yl)-1H-benzo[d]imidazol-1-yl)ethyl)benzonitrile hydrochloride], the IC50 is 12 nM. Consider `N#Cc1ccc(Cn2c(N3CC[C@@H](O)[C@H](N)C3)nc3ccccc32)nc1` [Example 95, 6-((2-((3R,4R)-3-amino-4-hydroxypiperidin-1-yl)-1H-benzo[d]imidazol-1-yl)methyl)nicotinonitrile], for which the IC50 is more than 3750 nM. For the compound `N[C@@H]1CN(c2nc3ccc(F)cc3n2Cc2ncc(Cl)cn2)CC[C@@H]1F` [Example 39, (3R,4S)-1-(1-((5-chloropyrimidin-2-yl)methyl)-6-fluoro-1H-benzo[d]imidazol-2-yl)-4-fluoropiperidin-3-amine], the IC50 came out at 0.867 nM. With `N[C@@H]1CN(c2nc3cc(F)c(F)cc3n2Cc2nnc(C3CC3)o2)CC[C@H]1F` [Example 581, (3R,4R)-1-(1-((5-cyclopropyl-1,3,4-oxadiazol-2-yl)methyl)-5,6-difluoro-1H-benzo[d]imidazol-2-yl)-4-fluoropiperidin-3-amine], the IC50 came to 368 nM.

As for `COc1ccnc(Cn2c(N3CC[C@@H](F)[C@H](N)C3)nc3cc(F)ccc32)c1` [Example 524, (3R,4R)-4-fluoro-1-(5-fluoro-1-((4-methoxypyridin-2-yl)methyl)-1H-benzo[d]imidazol-2-yl)piperidin-3-amine], the IC50 stood at 1490 nM. For `Cc1nc(-c2ccccc2)sc1Cn1c(N2CC[C@@H](F)[C@H](N)C2)nc2ccc(F)cc21` [Example 585, (3R,4R)-4-fluoro-1-(6-fluoro-1-((4-methyl-2-phenylthiazol-5-yl)methyl)-1H-benzo[d]imidazol-2-yl)piperidin-3-amine], the IC50 is 579 nM. For the compound `N#Cc1ccc(Cn2c(N3CC[C@@H](F)[C@H](N)C3)nc3ncc(Cl)cc32)nc1` [Example 93, 6-((2-((3R,4R)-3-amino-4-fluoropiperidin-1-yl)-6-chloro-1H-imidazo[4,5-b]pyridin-1-yl)methyl)nicotinonitrile], the IC50 came to 6.85 nM. Consider `COc1cnc(Cn2c(N3CC[C@@H](F)[C@H](N)C3)nc3ccc(F)cc32)nc1` [Example 444, (3R,4R)-4-fluoro-1-(6-fluoro-1-((5-methoxypyrimidin-2-yl)methyl)-1H-benzo[d]imidazol-2-yl)piperidin-3-amine], for which the IC50 was 4.42 nM. The same measure for `CN(CC(F)(F)F)C(=O)Cn1c(N2CC[C@@H](F)[C@H](N)C2)nc2cc(F)c(F)cc21` (single isomer, unassigned) [Example 635]: 304 nM.

The values are drawn from patent publication US11332459B2 (TEIJIN PHARMA LIMITED, priority 2017, dated 2022).
